Experimental data taken from ChEMBL document CHEMBL4425153, “Matched and mixed cap derivatives in the tetracyclic indole class of HCV NS5A inhibitors” (Bioorg Med Chem Lett, 2016).
Substitutions are numbered along the chain they refer to.

What was measured:
[1] = molecular target: T1, Nonstructural protein 5A (Hepatitis C virus) (UniProt Q5L478); assay: Inhibition of wild type HCV genotype 1a NS5A assessed as reduction in viral RNA level by cell based real time PCR method; details: Hepatitis C virus subtype 1a
T1 sequence (whole entry): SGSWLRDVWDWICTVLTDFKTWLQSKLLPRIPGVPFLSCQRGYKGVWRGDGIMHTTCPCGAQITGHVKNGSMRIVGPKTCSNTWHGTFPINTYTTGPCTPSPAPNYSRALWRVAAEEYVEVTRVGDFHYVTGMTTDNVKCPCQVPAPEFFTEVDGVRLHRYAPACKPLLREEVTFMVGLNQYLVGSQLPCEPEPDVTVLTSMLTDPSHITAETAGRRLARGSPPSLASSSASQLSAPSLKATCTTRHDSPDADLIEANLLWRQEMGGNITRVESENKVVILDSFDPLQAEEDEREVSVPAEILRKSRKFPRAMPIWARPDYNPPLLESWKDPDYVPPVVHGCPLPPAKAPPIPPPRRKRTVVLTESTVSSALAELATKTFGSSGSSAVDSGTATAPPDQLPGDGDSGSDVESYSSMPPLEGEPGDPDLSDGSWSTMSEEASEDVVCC

[2] = molecular target: T1, Nonstructural protein 5A (Hepatitis C virus); assay: Inhibition of wild type HCV genotype 2b NS5A assessed as reduction in viral RNA level by cell based real time PCR method; details: Hepatitis C virus subtype 2b
[3] = tested on: T2, Nonstructural protein 5A (Hepatitis C virus), Q5L478 [Y93H]; assay: Inhibition of HCV genotype 1a NS5A Y93H mutant assessed as reduction in viral RNA level by cell based real time PCR method; details: Hepatitis C virus subtype 1a
T2 sequence (whole entry): T1 sequence (whole entry) with Y93H

[4] = tested on: Nonstructural protein 5A (Hepatitis C virus), Q5L478 [UNDEFINED MUTATION]; assay: Inhibition of HCV genotype 1a NS5A L31V mutant assessed as reduction in viral RNA level by cell based real time PCR method; details: Hepatitis C virus subtype 1a

| Structure (SMILES) | EC90 [1] | EC90 [2] | EC90 [3] | EC90 [4] |
| --- | --- | --- | --- | --- |
| COC(=O)N[C@H](C(=O)N1CCC[C@H]1c1ncc(-c2ccc3c(c2)O[C@@H](c2ccccc2)n2c-3cc3cc(-c4cnc([C@@H]5CCCN5C(=O)[C@@H](NC(=O)OC)C5CCCCC5)[nH]4)ccc32)[nH]1)C1CCCCC1 | 0.1 nM | > 100 nM | > 100 nM | 11 nM |
| COC(=O)N[C@H](C(=O)N1CCC[C@H]1c1ncc(-c2ccc3c(c2)O[C@@H](c2ccccc2)n2c-3cc3cc(-c4cnc([C@@H]5CCCN5C(=O)[C@@H](NC(=O)OC)[C@@H](C)OC)[nH]4)ccc32)[nH]1)C(C)C | 0.039 nM | 35 nM | 54 nM | – |
| COC(=O)N[C@H](C(=O)N1CCC[C@H]1c1ncc(-c2ccc3c(c2)O[C@@H](c2ccccc2)n2c-3cc3cc(-c4cnc([C@@H]5CCCN5C(=O)[C@@H](NC(=O)OC)[C@@H](C)OC)[nH]4)ccc32)[nH]1)[C@@H](C)OC | 0.019 nM | 17 nM | > 100 nM | – |
| O=C([C@@H](c1ccccc1)N1CCCC1)N1CCC[C@H]1c1ncc(-c2ccc3c(c2)O[C@@H](c2ccccc2)n2c-3cc3cc(-c4cnc([C@@H]5CCCN5C(=O)[C@@H](c5ccccc5)N5CCCC5)[nH]4)ccc32)[nH]1 | 3.9 nM | 13 nM | > 100 nM | 3.9 nM |
| COC(=O)N[C@@H](C(=O)N1CCC[C@H]1c1ncc(-c2ccc3c(c2)O[C@@H](c2ccccc2)n2c-3cc3cc(-c4cnc([C@@H]5CCCN5C(=O)[C@H](NC(=O)OC)C5CCOCC5)[nH]4)ccc32)[nH]1)C1CCOCC1 | 8.6 nM | > 100 nM | > 100 nM | > 100 nM |
| CCN(CC)[C@@H](C(=O)N1CCC[C@H]1c1ncc(-c2ccc3c(c2)O[C@@H](c2ccccc2)n2c-3cc3cc(-c4cnc([C@@H]5CCCN5C(=O)[C@@H](c5ccccc5)N(CC)CC)[nH]4)ccc32)[nH]1)c1ccccc1 | 0.27 nM | 3.1 nM | > 100 nM | 0.6 nM |
| CCN(CC)[C@@H](C(=O)N1CCC[C@H]1c1ncc(-c2ccc3c(c2)cc2n3[C@H](c3ccccc3)Oc3cc(-c4cnc([C@@H]5CCCN5C(=O)[C@@H](NC(=O)OC)C(C)C)[nH]4)ccc3-2)[nH]1)c1ccccc1 | 0.045 nM | 4 nM | 44 nM | – |
| CN(C)[C@@H](C(=O)N1CCC[C@H]1c1ncc(-c2ccc3c(c2)O[C@@H](c2ccccc2)n2c-3cc3cc(-c4cnc([C@@H]5CCCN5C(=O)[C@@H](c5ccccc5)N(C)C)[nH]4)ccc32)[nH]1)c1ccccc1 | 0.3 nM | 0.87 nM | > 100 nM | 2.1 nM |
| CC[C@H](C)[C@H](NC(=O)OC)C(=O)N1CCC[C@H]1c1ncc(-c2ccc3c(c2)O[C@@H](c2ccccc2)n2c-3cc3cc(-c4cnc([C@@H]5CCCN5C(=O)[C@@H](NC(=O)OC)[C@@H](C)CC)[nH]4)ccc32)[nH]1 | 0.011 nM | > 100 nM | > 100 nM | 1.8 nM |
| COC(=O)N[C@H](C(=O)N1CCC[C@H]1c1ncc(-c2ccc3c(c2)O[C@@H](c2ccccc2)n2c-3cc3cc(-c4cnc([C@@H]5CCCN5C(=O)[C@@H](NC(=O)OC)C5CCC(F)(F)CC5)[nH]4)ccc32)[nH]1)C(C)C | 0.018 nM | 23 nM | 34 nM | 0.89 nM |
| CC[C@H](NC(=O)OC)C(=O)N1CCC[C@H]1c1ncc(-c2ccc3c(c2)O[C@@H](c2ccccc2)n2c-3cc3cc(-c4cnc([C@@H]5CCCN5C(=O)[C@H](CC)NC(=O)OC)[nH]4)ccc32)[nH]1 | 0.016 nM | 65 nM | > 100 nM | 1.6 nM |
| CN(C)[C@@H](C(=O)N1CCC[C@H]1c1ncc(-c2ccc3c(c2)O[C@@H](c2ccccc2)n2c-3cc3cc(-c4cnc([C@@H]5CCCN5C(=O)[C@@H](c5ccc(F)cc5)N(C)C)[nH]4)ccc32)[nH]1)c1ccc(F)cc1 | 0.98 nM | > 100 nM | > 100 nM | > 100 nM |
| O=C([C@H]1CCCO1)N1CCC[C@H]1c1ncc(-c2ccc3c(c2)O[C@@H](c2ccccc2)n2c-3cc3cc(-c4cnc([C@@H]5CCCN5C(=O)[C@H]5CCCO5)[nH]4)ccc32)[nH]1 | 1 nM | > 100 nM | > 100 nM | > 100 nM |
| COC(=O)N[C@H](C(=O)N1CCC[C@H]1c1ncc(-c2ccc3c(c2)O[C@@H](c2ccccc2)n2c-3cc3cc(-c4cnc([C@@H]5CCCN5C(=O)[C@@H](NC(=O)OC)C5CC5)[nH]4)ccc32)[nH]1)C1CC1 | 0.028 nM | > 100 nM | > 100 nM | > 100 nM |
| COCC[C@H](NC(=O)OC)C(=O)N1CCC[C@H]1c1ncc(-c2ccc3c(c2)O[C@@H](c2ccccc2)n2c-3cc3cc(-c4cnc([C@@H]5CCCN5C(=O)[C@H](CCOC)NC(=O)OC)[nH]4)ccc32)[nH]1 | 0.061 nM | 91 nM | 46 nM | 2.1 nM |
| COC(=O)N[C@H](C(=O)N1CCC[C@H]1c1ncc(-c2ccc3c(c2)cc2n3[C@H](c3ccccc3)Oc3cc(-c4cnc([C@@H]5CCCN5C(=O)[C@@H](NC(=O)OC)[C@@H](C)OC)[nH]4)ccc3-2)[nH]1)C(C)C | 0.062 nM | 5 nM | 50 nM | 1.1 nM |
| COC(=O)N[C@@H](CC1CCOCC1)C(=O)N1CCC[C@H]1c1ncc(-c2ccc3c(c2)cc2n3[C@H](c3ccccc3)Oc3cc(-c4cnc([C@@H]5CCCN5C(=O)[C@@H](NC(=O)OC)C(C)C)[nH]4)ccc3-2)[nH]1 | 0.014 nM | 8.9 nM | 24 nM | 0.33 nM |
| COC(=O)NC1(C(=O)N2CCC[C@H]2c2ncc(-c3ccc4c(c3)O[C@@H](c3ccccc3)n3c-4cc4cc(-c5cnc([C@@H]6CCCN6C(=O)C6(NC(=O)OC)CCOCC6)[nH]5)ccc43)[nH]2)CCOCC1 | 1.4 nM | > 100 nM | > 100 nM | > 100 nM |
| COC(=O)N[C@H](C(=O)N1CCC[C@H]1c1ncc(-c2ccc3c(c2)O[C@@H](c2ccccc2)n2c-3cc3cc(-c4cnc([C@@H]5CCCN5C(=O)[C@@H](NC(=O)OC)C5CCCC5)[nH]4)ccc32)[nH]1)C1CCCC1 | 0.014 nM | 52 nM | > 100 nM | 4.1 nM |
| COC(=O)N[C@@H](C)C(=O)N1CCC[C@H]1c1ncc(-c2ccc3c(c2)O[C@@H](c2ccccc2)n2c-3cc3cc(-c4cnc([C@@H]5CCCN5C(=O)[C@H](C)NC(=O)OC)[nH]4)ccc32)[nH]1 | 0.042 nM | > 100 nM | > 100 nM | 6.4 nM |
| COC(=O)N[C@H](C(=O)N1CCC[C@H]1c1ncc(-c2ccc3c(c2)O[C@@H](c2ccccc2)n2c-3cc3cc(-c4cnc([C@@H]5CCCN5C(=O)[C@@H](NC(=O)OC)C5CCOCC5)[nH]4)ccc32)[nH]1)C(C)C | 0.06 nM | 9 nM | 11 nM | 0.6 nM |
| COC(=O)N[C@H](C(=O)N1CCC[C@H]1c1nc(-c2ccc3c(c2)O[C@@H](c2ccccc2)n2c-3cc3cc(-c4c[nH]c([C@@H]5CCCN5C(=O)[C@@H](NC(=O)OC)C(C)C)n4)ccc32)c[nH]1)C(C)C | 0.006 nM | 11 nM | 28 nM | 1 nM |
| COC(=O)N[C@H](C(=O)N1CCC[C@H]1c1ncc(-c2ccc3c(c2)O[C@@H](c2ccccc2)n2c-3cc3cc(-c4cnc([C@@H]5CCCN5C(=O)[C@@H](NC(=O)OC)[C@@H](C)O)[nH]4)ccc32)[nH]1)[C@@H](C)O | > 1 nM | > 100 nM | > 100 nM | > 100 nM |
| CC[C@H](C)[C@H](NC(=O)OC)C(=O)N1CCC[C@H]1c1ncc(-c2ccc3c(c2)O[C@@H](c2ccccc2)n2c-3cc3cc(-c4cnc([C@@H]5CCCN5C(=O)[C@@H](NC(=O)OC)C(C)C)[nH]4)ccc32)[nH]1 | 0.06 nM | 50 nM | 77 nM | 4.3 nM |
| COC(=O)N[C@H](C(=O)N1CCC[C@H]1c1ncc(-c2ccc3c(c2)O[C@@H](c2ccccc2)n2c-3cc3cc(-c4cnc([C@@H]5CCCN5C(=O)[C@@H](NC(=O)OC)C5CCC(F)(F)CC5)[nH]4)ccc32)[nH]1)C1CCC(F)(F)CC1 | 0.03 nM | 77 nM | 39 nM | 0.65 nM |
| COC(=O)N[C@@H](CC1CCOCC1)C(=O)N1CCC[C@H]1c1ncc(-c2ccc3c(c2)O[C@@H](c2ccccc2)n2c-3cc3cc(-c4cnc([C@@H]5CCCN5C(=O)[C@H](CC5CCOCC5)NC(=O)OC)[nH]4)ccc32)[nH]1 | 0.1 nM | 18 nM | 40 nM | 0.77 nM |
